From the NIST ThermoML archive (doi:10.1021/je100190e)

Assay: mn = molality of the nth substance listed, in mol/kg
Settings: 101 kPa, Liquid

N=C(N)NCCC[C@H](N)C(=O)O [L-arginine] + O
mass density [kg/m3]
Settings	303.15 K	308.15 K	313.15 K	318.15 K	323.15 K
m1 = 0.0302	997.1	995.5	993.7	991.7	989.5
m1 = 0.0607	998.6	997	995.2	993.2	991
m1 = 0.0914	1000.1	998.5	996.7	994.7	992.5
m1 = 0.122	1001.5	999.9	998.1	996.1	993.9
m1 = 0.1533	1003	1001.4	999.6	997.6	995.4

N[C@@H](Cc1c[nH]cn1)C(=O)O [L-histidine] + O
mass density [kg/m3]
Settings	303.15 K	308.15 K	313.15 K	318.15 K	323.15 K
m1 = 0.0303	997.3	995.7	993.9	991.9	989.7
m1 = 0.0606	998.9	997.3	995.5	993.5	991.3
m1 = 0.0913	1000.6	999	997.2	995.2	993
m1 = 0.1221	1002.2	1000.6	998.8	996.8	994.6
m1 = 0.1526	1003.8	1002.2	1000.4	998.4	996.2

Cl.NCCCC[C@H](N)C(=O)O [L-lysine monohydrochloride] + O
mass density [kg/m3]
Settings	303.15 K	308.15 K	313.15 K	318.15 K	323.15 K
m1 = 0.0302	997.3	995.7	993.9	991.9	989.7
m1 = 0.0606	999	997.4	995.6	993.6	991.4
m1 = 0.0913	1000.7	999.1	997.3	995.3	993.1
m1 = 0.1224	1002.4	1000.8	999	997	994.8
m1 = 0.1536	1004.1	1002.5	1000.7	998.7	996.4

CC(=O)[O-].CC(=O)[O-].[Ca+2] [calcium acetate] + O
m1 = 1
Settings	mass density [kg/m3]
303.15 K	1075.1
308.15 K	1073.2
313.15 K	1071.6
318.15 K	1069.3
323.15 K	1067.1

CC(=O)[O-].[K+] [potassium ethanoate] + O
m1 = 1
Settings	mass density [kg/m3]
303.15 K	1039.7
308.15 K	1038.1
313.15 K	1036.1
318.15 K	1033.5
323.15 K	1032

CC(=O)[O-].[Na+] [sodium ethanoate] + O
m1 = 1
Settings	mass density [kg/m3]
303.15 K	1032.9
308.15 K	1031.8
313.15 K	1029.3
318.15 K	1027.5
323.15 K	1025.4

O [water] + Cl.NCCCC[C@H](N)C(=O)O
Settings	mass density [kg/m3]
323.15 K, m2 = 0	988

O [water] + N=C(N)NCCC[C@H](N)C(=O)O
Settings	mass density [kg/m3]
323.15 K, m2 = 0	988

O [water] + N[C@@H](Cc1c[nH]cn1)C(=O)O
Settings	mass density [kg/m3]
323.15 K, m2 = 0	988
